Where two headings read alike, the source gives them in different places.
Legend:
[1] = molecular target: T1, SOS1 (Homo sapiens, UniProt Q07889); test: SOS-catalyzed nucleotide exchange assay (HTRF, SOS1-mediated GTP loading of KRAS G12D); assay type: biochemical
T1 construct: HIS-SOS1cat (160 nM; Cytoskeleton, US); His (N); purchased Cytoskeleton
T1 sequence (Q07889 564-1049 limits assumed): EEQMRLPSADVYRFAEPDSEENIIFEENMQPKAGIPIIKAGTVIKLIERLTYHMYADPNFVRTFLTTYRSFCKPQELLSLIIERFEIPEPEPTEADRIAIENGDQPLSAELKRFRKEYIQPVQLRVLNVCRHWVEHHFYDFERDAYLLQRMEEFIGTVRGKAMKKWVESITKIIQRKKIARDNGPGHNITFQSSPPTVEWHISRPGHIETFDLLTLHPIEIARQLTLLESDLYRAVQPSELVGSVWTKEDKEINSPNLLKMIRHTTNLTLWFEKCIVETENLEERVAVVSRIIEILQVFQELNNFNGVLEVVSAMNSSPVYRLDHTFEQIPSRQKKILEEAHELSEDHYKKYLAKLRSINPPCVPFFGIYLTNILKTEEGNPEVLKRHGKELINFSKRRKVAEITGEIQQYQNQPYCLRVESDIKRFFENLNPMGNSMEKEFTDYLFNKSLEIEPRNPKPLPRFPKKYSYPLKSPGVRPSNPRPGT

[2] = test system: lung cancer cell line NCI-H358 having the KRAS G12C variant; test: Cancer cell growth inhibition, 3D spheroids (CellTiter-Glo 3D); assay type: cell-based; conditions: read-out: H358 cell viability
Procedure: Thereafter, the plate with the cells cultured was adapted to room temperature for 10 minutes, and then 50 µL of CellTiter-Glo® 3D Cell Viability Assay (PROMEGA, G9683) solution was dispensed, and reacted on a horizontal stirrer at a speed of 300 RPM for 30 minutes to induce the cell lysis. […] Thereafter, based on the measured values, the degree of cell growth in the well treated with each compound was calculated when the final cell density value of the well not treated with the test substance was set to 100%.

[3] = molecular target: T2, KRAS G12C::SOS1 (Homo sapiens, UniProt Q07889); test: KRAS G12C::SOS1 protein-protein interaction (PPI) inhibition assay (HTRF); assay type: binding
T2 construct: purchased CISBIO 64KRASG12PEH
T2 sequence (Q07889 1-1333): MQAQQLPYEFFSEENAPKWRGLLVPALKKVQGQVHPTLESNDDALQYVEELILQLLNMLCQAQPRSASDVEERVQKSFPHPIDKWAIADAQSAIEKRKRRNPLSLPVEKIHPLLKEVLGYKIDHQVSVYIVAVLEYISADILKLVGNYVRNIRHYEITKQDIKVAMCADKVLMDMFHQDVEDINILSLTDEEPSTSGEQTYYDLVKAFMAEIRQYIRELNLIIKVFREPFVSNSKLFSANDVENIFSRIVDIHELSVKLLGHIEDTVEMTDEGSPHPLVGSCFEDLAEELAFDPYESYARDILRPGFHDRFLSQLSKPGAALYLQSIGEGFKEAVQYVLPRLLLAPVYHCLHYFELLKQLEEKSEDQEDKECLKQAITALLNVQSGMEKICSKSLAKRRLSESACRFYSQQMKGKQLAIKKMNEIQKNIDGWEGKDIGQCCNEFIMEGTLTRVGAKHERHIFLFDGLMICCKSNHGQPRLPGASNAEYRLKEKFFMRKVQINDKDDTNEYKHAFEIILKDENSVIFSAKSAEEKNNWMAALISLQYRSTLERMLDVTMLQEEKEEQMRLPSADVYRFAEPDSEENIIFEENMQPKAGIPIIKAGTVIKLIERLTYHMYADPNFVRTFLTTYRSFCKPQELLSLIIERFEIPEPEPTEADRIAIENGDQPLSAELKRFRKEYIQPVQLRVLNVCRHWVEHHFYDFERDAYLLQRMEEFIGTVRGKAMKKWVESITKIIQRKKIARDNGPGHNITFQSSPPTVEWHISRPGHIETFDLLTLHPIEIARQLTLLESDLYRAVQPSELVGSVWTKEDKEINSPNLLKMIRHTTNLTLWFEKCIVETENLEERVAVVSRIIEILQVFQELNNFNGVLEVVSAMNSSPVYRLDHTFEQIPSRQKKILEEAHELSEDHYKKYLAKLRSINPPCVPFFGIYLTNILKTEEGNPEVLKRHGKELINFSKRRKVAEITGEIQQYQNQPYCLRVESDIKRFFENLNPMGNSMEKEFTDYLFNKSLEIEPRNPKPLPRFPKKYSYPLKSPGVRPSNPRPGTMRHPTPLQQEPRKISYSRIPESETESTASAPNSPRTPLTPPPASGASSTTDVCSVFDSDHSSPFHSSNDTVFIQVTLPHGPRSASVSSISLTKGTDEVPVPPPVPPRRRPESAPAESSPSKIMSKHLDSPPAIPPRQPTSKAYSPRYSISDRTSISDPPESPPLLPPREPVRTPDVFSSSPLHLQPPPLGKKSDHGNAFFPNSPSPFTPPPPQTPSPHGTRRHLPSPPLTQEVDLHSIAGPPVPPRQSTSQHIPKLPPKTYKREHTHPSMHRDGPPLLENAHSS
How it was run: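 Compounds, at eight 3-fold dilutions from 3 µM, were mixed with GTP-loaded Tag1-KRAS G12C, Tag2-SOS1 and a terbium-cryptate donor plus XL665 acceptor antibody pair. After 2 h at room temperature, time-resolved FRET reported the KRAS–SOS1 interaction.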

[4] = GST-KRAS G12D, HIS-SOS1cat, compound 128 pM to 10 µM, read-out: SOS-catalyzed nucleotide exchange assay
[5] = Homo sapiens, NCI-H358, 120 h, 3D spheroids, 0.002-10 µM, 5 days
[6] = 8 concentrations from 3 µM, three replicates, read-out: KRAS G12C::SOS1 PPI

Molecule: C[C@@H](NC(=O)c1ccc(=O)n(-c2cnnc(-c3cnnn3C)c2)n1)c1cccc(C(F)(F)F)c1F [Example 4, N-[(1R)-1-[2-fluoro-3-(trifluoromethyl)phenyl]ethyl]-1-[6-(3-methyltriazol-4-yl)pyridazin-4-yl]-6-oxo-pyridazine-3-carboxamide]
- IC50 [1]: > 150 nM
- IC50 ([2]; Homo sapiens, NCI-H358, 120 h): > 3000 nM
- IC50 [3]: > 150 nM

Molecule: [2H]C([2H])([2H])n1nncc1-c1cncc(-n2nc(C(=O)N[C@H](C)c3cccc(C(F)F)c3F)ccc2=O)c1 [Example 1-6, N-[(1R)-1-[3-(difluoromethyl)-2-fluoro-phenyl]ethyl]-6-oxo-1-[5-[3-(trideuteriomethyl)triazol-4-yl]-3-pyridyl]pyridazine-3-carboxamide]
- IC50 [1, 4]: 50 to 150 nM
- IC50 [2, 5]: > 3000 nM
- IC50 [3, 6]: < 50 nM

Molecule: C[C@@H](NC(=O)c1ccc(=O)n(-c2cncc(-c3cnnn3C)c2)n1)c1cccc(C(F)F)c1F [Example 1-1, N-[(1R)-1-[3-(difluoromethyl)-2-fluoro-phenyl]ethyl]-1-[5-(3-methyltriazol-4-yl)-3-pyridyl]-6-oxo-pyridazine-3-carboxamide]
- IC50 [1, 4]: 50 to 150 nM
- IC50 [2, 5]: < 1000 nM
- IC50 [3, 6]: < 50 nM

Molecule: CCn1nncc1-c1cncc(-n2nc(C(=O)N[C@H](C)c3cccc(C(F)(F)F)c3F)ccc2=O)c1 [Example 1-12, N-[(1R)-1-[2-fluoro-3-(trifluoromethyl)phenyl]ethyl]-1-[5-(3-ethyltriazol-4-yl)-3-pyridyl]-6-oxo-pyridazine-3-carboxamide]
- IC50 [1, 4]: < 50 nM
- IC50 [2, 5]: < 1000 nM
- IC50 [3, 6]: 50 to 150 nM

Molecule: Cc1cc(C(=O)N[C@H](C)c2cccc(C(F)F)c2F)nn(-c2cncc(-c3cnnn3C)c2)c1=O [Example 1-15, N-[(1R)-1-[3-(difluoromethyl)-2-fluoro-phenyl]ethyl]-5-methyl-1-[5-(3-methyltriazol-4-yl)-3-pyridyl]-6-oxo-pyridazine-3-carboxamide]
- IC50 [1, 4]: < 50 nM
- IC50 [2, 5]: < 1000 nM
- IC50 [3, 6]: < 50 nM

Molecule: C[C@@H](NC(=O)c1cc(CO)c(=O)n(-c2cncc(-c3cnnn3C)c2)n1)c1cccc(C(F)(F)F)c1F [Example 1-61, N-{(R)-1-[2-fluoro-3-(trifluoromethyl)phenyl]ethyl}-5-(hydroxymethyl)-1-[5-(1-methyl-1H-1,2,3-triazol-5-yl)-3-pyridyl]-6-oxo-1,6-dihydropyridazine-3-carboxamide]
- IC50 [1, 4]: 50 to 150 nM
- IC50 [2, 5]: < 1000 nM
- IC50 [3, 6]: < 50 nM

Molecule: [2H]C([2H])([2H])c1cc(C(=O)N[C@H](C)c2cccc(C(F)(F)F)c2F)nn(-c2cncc(-c3cnnn3C)c2)c1=O [Example 7-1, N-{(R)-1-[2-fluoro-3-(trifluoromethyl)phenyl]ethyl}-5-[methyl-trideuterio]-1-[5-(1-methyl-1H-1,2,3-triazol-5-yl)-3-pyridyl]-6-oxo-1,6-dihydropyridazine-3-carboxamide]
- IC50 [1, 4]: 50 to 150 nM
- IC50 [2, 5]: < 1000 nM
- IC50 [3, 6]: 50 to 150 nM

Molecule: CC(=O)c1cc(C(=O)N[C@H](C)c2cccc(C(F)(F)F)c2F)nn(-c2cncc(-c3cnnn3C)c2)c1=O [Example 1-62, N-{(R)-1-[2-fluoro-3-(trifluoromethyl)phenyl]ethyl}-5-acetyl-1-[5-(1-methyl-1H-1,2,3-triazol-5-yl)-3-pyridyl]-6-oxo-1,6-dihydropyridazine-3-carboxamide]
- IC50 [1, 4]: 50 to 150 nM
- IC50 [2, 5]: < 1000 nM
- IC50 [3, 6]: < 50 nM

Molecule: C[C@@H](NC(=O)c1ccc(=O)n(-c2cc(-c3cnnn3C3CC3)cnc2F)c1)c1cccc(C(F)(F)F)c1F [Example 1-67, (R)-5'-(1-cyclopropyl-1H-1,2,3-triazol-5-yl)-2'-fluoro-N-(1-(2-fluoro-3-(trifluoromethyl)phenyl)ethyl)-2-oxo-2H-[1,3'-bipyridine]-5-carboxamide]
- IC50 [1, 4]: < 50 nM
- IC50 [2, 5]: < 1000 nM
- IC50 [3, 6]: 50 to 150 nM

Molecule: Cc1ncc(-n2nc(C(=O)N[C@H](C)c3cccc(C(F)(F)CO)c3F)ccc2=O)cc1-c1cnnn1C [Example 1-29]
- IC50 [1, 4]: 50 to 150 nM
- IC50 [2, 5]: < 1000 nM
- IC50 [3, 6]: < 50 nM

Molecule: [2H]C([2H])([2H])n1nncc1-c1cncc(-n2nc(C(=O)N[C@H](C)c3cc(N)cc(C(F)F)c3)ccc2=O)c1 [Example 1-4, N-[(1R)-1-[3-amino-5-(difluoromethyl)phenyl]ethyl]-6-oxo-1-[5-[3-(trideuteriomethyl)triazol-4-yl]-3-pyridyl]pyridazine-3-carboxamide]
- IC50 [1, 4]: 50 to 150 nM
- IC50 [2, 5]: > 3000 nM
- IC50 [3, 6]: < 50 nM

Molecule: CC(C)n1nncc1-c1cncc(-n2nc(C(=O)N[C@H](C)c3cccc(C(F)(F)F)c3F)cc(CO)c2=O)c1 [Example 6-2, N-{(1R)-1-[2-fluoro-3-(trifluoromethyl)phenyl]ethyl}-1-[5-(1-isopropyl-1H-1,2,3-triazol-5-yl)-3-pyridyl]-5-(hydroxymethyl)-6-oxo-1,6-dihydropyridazine-3-carboxamide]
- IC50 [1, 4]: < 50 nM
- IC50 [2, 5]: < 1000 nM
- IC50 [3, 6]: 50 to 150 nM

Molecule: C[C@@H](NC(=O)c1ccc(=O)n(-c2cncc(-c3cnnn3C3CC3)c2)n1)c1cccc(C(F)(F)F)c1F [Example 1-50, N-[(1R)-1-[2-fluoro-3-(trifluoromethyl)phenyl]ethyl]-1-[5-(1-cyclopropyl-1H-1,2,3-triazol-5-yl)-3-pyridyl]-6-oxo-pyridazine-3-carboxamide]
- IC50 [1, 4]: < 50 nM
- IC50 [2, 5]: < 1000 nM
- IC50 [3, 6]: < 50 nM

Molecule: (R)-3-bromo-N-(1-(2-fluoro-3-(trifluoromethyl)phenyl)ethyl)-5'-(1-methyl-1H-1,2,3-triazol-5-yl)-2-oxo-2H-[1,3'-bipyridine]-5-carboxamide [Example 1-22]
- IC50 [1, 4]: > 150 nM
- IC50 ([2]; 3D spheroids, 0.002-10 µM, 5 days): < 1000 nM
- IC50 [3, 6]: 50 to 150 nM

Molecule: Cc1cc(C(=O)N[C@H](C)c2cccc(C(F)(F)CO)c2F)nn(-c2cncc(-c3cnnn3C(C)C)c2)c1=O [Example 1-39, N-{(R)-1-[3-(1,1-difluoro-2-hydroxyethyl)-2-fluorophenyl]ethyl}-1-[5-(1-isopropyl-1H-1,2,3-triazol-5-yl)-3-pyridyl]-5-methyl-6-oxo-1,6-dihydropyridazine-3-carboxamide]
- IC50 [1, 4]: < 50 nM
- IC50 [2, 5]: < 1000 nM
- IC50 [3, 6]: < 50 nM

Molecule: C[C@@H](NC(=O)c1ccc(=O)n(-c2cnnc(-c3ccnn3C)c2)n1)c1cccc(C(F)(F)CO)c1F [Example 1-20, N-[(1R)-1-[3-(1,1-difluoro-2-hydroxy-ethyl)-2-fluoro-phenyl]ethyl]-1-[6-(2-methylpyrazol-3-yl)pyridazin-4-yl]-6-oxo-pyridazine-3-carboxamide]
- IC50 [1, 4]: 50 to 150 nM
- IC50 [2, 5]: > 3000 nM
- IC50 [3, 6]: > 150 nM
